The record followed here is PubChem BioAssay AID1205 (EPA DSSTox, 2008).

Calls of active or inactive are those of the source.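 Rule for the calls: active = tumour findings in long-term animal cancer tests in more than one sex, species or organ; inactive = no tumour finding and more than one negative test.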

The data set can be described thus: DSSTox (CPDBAS) Carcinogenic Potency Database Summary MultiCellCall Results. As to conditions: animal carcinogenicity bioassays, multi-cell call summary. In short, it runs like this: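 ActivityScore sums 50 for multispecies, 30 for multisex and 20 for multisite positivity. Based on the most positive experiment per sex-species across standardised chronic rodent and other animal cancer tests.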
Consider `CCC1C(=O)OCC1Cc1cncn1C` (stereo not given), for which the outcome was “inactive; multisex inactive”.
Then `Nc1ccc(Oc2ccc(N)cc2)cc1`, with “active; multisite active; multisex active; multispecies active”; and `COC(=O)C1=CCCN(C)C1`, with “active; multisite active; multisex active”; and `O=C(c1ccccc1)C(O)c1ccccc1` (stereo not given), with “inactive; multisex inactive; multispecies inactive”.
Then `C=C1C/C(=C/C)C(=O)O[C@@H]2CCN3CC=C(COC(=O)[C@@]1(O)CO)[C@H]23`, with “active; multisite active; multisex active; multispecies active”.
Consider `CC(=O)OC[C@]12C[C@H](OC(=O)CC(C)C)C(C)=C[C@H]1O[C@@H]1[C@H](O)[C@@H](OC(C)=O)[C@@]2(C)C12CO2` (stereo not given in full), for which the outcome is “active; multisite active”.
To `Cc1ccc(Cl)cc1N` belongs “active; multisite active; multisex active”; to `CC(C)OC(=O)Nc1cccc(Cl)c1`, “inactive; multisex inactive; multispecies inactive”; to `S=C(SSSSSSC(=S)N1CCCCC1)N1CCCCC1`, “inactive; multisex inactive”.
Then `O=CCCCC=O`, with “inactive; multisex inactive; multispecies inactive”.
To `CCN(Cc1cccc(S(=O)(=O)O)c1)c1ccc(C(=C2C=CC(=[N+](CC)Cc3cccc(S(=O)(=O)O)c3)C=C2)c2ccc(O)cc2S(=O)(=O)[O-])cc1` belongs “inactive; multisex inactive; multispecies inactive”; to `O=C(O)Cc1c[nH]c2ccccc12`, “inactive; multisex inactive”.
For the molecule `OCCBr`, the outcome was “active; multisex active”.
To `CC(O)CCl` (stereo not given) belongs “inactive; multisex inactive; multispecies inactive”; to `Cc1ncc[nH]1`, “active; multisite active; multisex active; multispecies active”; to `N[C@@H](CCC(=O)NNc1ccc(CO)cc1)C(=O)O`, “inactive; multisex inactive”.
To `Clc1ccc2c(c1)C(c1ccccc1)=NCc1nncn1-2` belongs “inactive; multisex inactive; multispecies inactive”.
Then `CC(C)NCC(O)c1ccc(NS(C)(=O)=O)cc1` (stereo not given), with “inactive; multisex inactive; multispecies inactive”.
On to `CC(O)CN(N=O)C(=O)NCCCl` (stereo not given), for which the outcome was “active; multisex active”.
To `Oc1ccccc1O` belongs “active; multisex active; multispecies active”; to `ClC(Cl)Br`, “active; multisite active; multisex active; multispecies active”.
To `S=C1NCCN1` belongs “active; multisite active; multisex active; multispecies active”.
For the molecule `Cc1cc(N=Nc2ccccc2C)ccc1N`, the outcome was “active; multisex active”.
To `NN` belongs “active; multisite active; multisex active; multispecies active”; to `CC(=O)[O][Sn]([c]1ccccc1)([c]1ccccc1)[c]1ccccc1`, “inactive; multisex inactive”.
Then `C=C(F)F`, with “inactive; multisex inactive”; and `COc1ccc2nc(S(=O)Cc3ncc(C)c(OC)c3C)[nH]c2c1` (stereo not given), with “active; multisex active”.
Then `C=CC`, with “inactive; multisex inactive; multispecies inactive”; and `Cc1cccc(OCC(O)CNC(C)(C)C)c1C` (stereo not given), with “inactive; multisex inactive”; and `CCOc1nc2cccc(C(=O)OC(C)OC(=O)OC3CCCCC3)c2n1Cc1ccc(-c2ccccc2-c2nn[nH]n2)cc1` (stereo not given), with “inactive; multisex inactive”.
As to `C=C(C)C#N`, the outcome was “inactive; multisex inactive; multispecies inactive”.
Then `Nc1ccc(Cl)c(N)c1`, with “active; multisite active; multisex active; multispecies active”; and `Cc1ccc(N=Nc2c(O)c(S(=O)(=O)O)cc3ccc(S(=O)(=O)O)cc23)c(C)c1`, with “active; multisex active; multispecies active”.
Take `CNC(=O)CSP(=S)(OC)OC`: the outcome is “inactive; multisex inactive; multispecies inactive”.
Then `CN(C)c1ccc(C(=O)c2ccc(N(C)C)cc2)cc1`, with “active; multisite active; multisex active; multispecies active”.
